Results: PMC7668422 (Anesthesia and analgesia, 2020)

Columns and labels:
[1] = target: T1, μ-opioid receptor (MOR) (Homo sapiens, UniProt P35372); assay: Affinity for the μ-opioid receptor; assay type: binding; conditions: mean ± SD; no method described
[2] = target: T2, human KOR (Homo sapiens, UniProt P41145); assay: biochemical; assay type: biochemical
Target sequence in this assay (P41145 whole entry): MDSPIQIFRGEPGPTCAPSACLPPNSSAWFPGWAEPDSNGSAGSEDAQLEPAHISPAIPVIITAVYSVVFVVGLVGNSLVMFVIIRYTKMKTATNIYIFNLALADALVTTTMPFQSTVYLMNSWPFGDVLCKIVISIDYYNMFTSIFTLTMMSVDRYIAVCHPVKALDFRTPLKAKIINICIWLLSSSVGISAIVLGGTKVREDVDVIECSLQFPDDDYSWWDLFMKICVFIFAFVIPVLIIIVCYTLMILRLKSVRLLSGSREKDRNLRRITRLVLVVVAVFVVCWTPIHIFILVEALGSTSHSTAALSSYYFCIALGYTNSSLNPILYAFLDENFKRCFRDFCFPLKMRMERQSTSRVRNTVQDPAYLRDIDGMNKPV
Target sequence in this assay (P63096 2-354 partner limits assumed): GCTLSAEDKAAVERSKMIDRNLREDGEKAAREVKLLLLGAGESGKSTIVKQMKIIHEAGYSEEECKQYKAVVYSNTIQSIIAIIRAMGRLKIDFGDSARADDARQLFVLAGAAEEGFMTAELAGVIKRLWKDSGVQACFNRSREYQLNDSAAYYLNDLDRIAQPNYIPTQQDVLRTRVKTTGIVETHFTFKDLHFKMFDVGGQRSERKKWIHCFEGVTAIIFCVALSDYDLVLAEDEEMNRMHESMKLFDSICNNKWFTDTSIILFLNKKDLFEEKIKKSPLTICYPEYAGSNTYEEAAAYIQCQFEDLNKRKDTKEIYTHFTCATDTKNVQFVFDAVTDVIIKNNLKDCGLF
Target sequence in this assay (P62873 2-340 partner limits assumed): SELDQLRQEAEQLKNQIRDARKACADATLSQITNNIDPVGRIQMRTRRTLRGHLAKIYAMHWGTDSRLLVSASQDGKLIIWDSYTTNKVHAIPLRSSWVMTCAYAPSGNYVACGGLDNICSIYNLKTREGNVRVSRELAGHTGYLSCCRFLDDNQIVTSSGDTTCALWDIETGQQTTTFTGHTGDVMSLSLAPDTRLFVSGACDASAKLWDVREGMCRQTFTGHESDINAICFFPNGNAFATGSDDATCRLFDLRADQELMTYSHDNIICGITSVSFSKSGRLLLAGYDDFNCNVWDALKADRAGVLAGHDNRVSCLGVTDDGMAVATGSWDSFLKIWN
Target sequence in this assay (P59768 2-68 partner limits assumed): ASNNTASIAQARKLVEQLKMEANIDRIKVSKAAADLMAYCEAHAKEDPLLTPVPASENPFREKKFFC

[3] = target: T2, human KOR; assay type: cell-based
Target sequence in this assay (P41145 whole entry): as the sequence (P41145 whole entry) above

[4] = cited from earlier work
[5] = target: T1, μ-opioid receptor (MOR); conditions: cited from earlier work
[6] = target: κ-opioid receptor (KOR) (Homo sapiens, UniProt P41145); assay: biochemical; assay type: binding
κ-opioid receptor (KOR), sequence (P41145 whole entry, the tested form may be a part): as the sequence (P41145 whole entry) above

[7] = target: mKOR-tdTomato fusion protein in Neuro2A cells (Mus musculus, UniProt P33534); assay: KOR internalization in N2A-mKOR-tdT cells, fluorescence microscopy; assay type: cell-based
mKOR-tdTomato fusion protein in Neuro2A cells, sequence (P33534 whole entry, the tested form may be a part): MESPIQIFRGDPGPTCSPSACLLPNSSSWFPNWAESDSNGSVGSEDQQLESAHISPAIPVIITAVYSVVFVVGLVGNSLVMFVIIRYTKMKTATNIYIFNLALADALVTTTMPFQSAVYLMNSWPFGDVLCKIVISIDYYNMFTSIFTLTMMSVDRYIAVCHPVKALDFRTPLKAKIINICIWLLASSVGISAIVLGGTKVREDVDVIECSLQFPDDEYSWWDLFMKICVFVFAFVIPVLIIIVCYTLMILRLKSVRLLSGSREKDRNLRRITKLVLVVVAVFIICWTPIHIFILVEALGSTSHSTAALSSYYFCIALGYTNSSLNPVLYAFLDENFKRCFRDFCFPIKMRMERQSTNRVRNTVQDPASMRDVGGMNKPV

[8] = test system: KOR; conditions: no reference given; cited from earlier work

T1 sequence (P35372 whole entry, species assumed): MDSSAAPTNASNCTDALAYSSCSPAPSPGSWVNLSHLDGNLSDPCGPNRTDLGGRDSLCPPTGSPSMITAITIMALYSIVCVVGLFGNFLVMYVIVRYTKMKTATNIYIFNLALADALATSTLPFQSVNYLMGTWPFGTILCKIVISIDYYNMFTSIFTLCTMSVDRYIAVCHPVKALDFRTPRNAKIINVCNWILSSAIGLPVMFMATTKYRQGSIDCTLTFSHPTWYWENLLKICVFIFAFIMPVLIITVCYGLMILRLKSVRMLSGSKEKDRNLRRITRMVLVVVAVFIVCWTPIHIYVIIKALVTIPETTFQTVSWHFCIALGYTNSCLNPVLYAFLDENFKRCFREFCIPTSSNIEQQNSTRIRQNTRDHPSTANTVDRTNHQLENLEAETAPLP

SMILES: Oc1ccc2c(c1)[C@@]13CCCC[C@@]1(O)[C@@H](C2)N(CC1CCC1)CC3 [butorphanol]
- affinity for the μ-opioid receptor [1]: 2.4 ± 1.2 nM
- EC50 [2]: 2.8 nM
- agonist character, G protein activation pathway [2]: partial, high affinity agonist
- maximal G protein activation relative to salvinorin A [2]: about 50%
- agonist character, β-arrestin recruitment pathway [3]: full agonist
- analgesic potency relative to morphine ([4]; clinical trial for perioperative pain management): ~6 times
- potency relative to morphine ([4]; discussion statement, no reference given): 5–7 fold
- agonist character at MOR [5]: partial μ-opioid receptor (MOR) agonist
- Kd [6]: 0.1 ± 0.02 nM
- Ki [6]: 0.1 ± 0.02 nM
- affinity for KOR relative to μ-opioid receptor [6]: about twenty-fold
- KOR internalization ([7]; butorphanol 0.1 μM to 8 μM, from 5 min): KOR internalization was observed

SMILES: C[C@@]12CCCCC[C@@H](Cc3ccc(O)cc31)[C@@H]2N [dezocine]
- Ki [6]: 56 ± 2 nM
- effect on butorphanol-induced KOR internalization ([7]; 2 μM dezocine co-incubated with 0.4 μM butorphanol for 30 min): abolish the KOR internalization

SMILES: CC(C)[C@@H](CN1CC[C@@](C)(c2cccc(O)c2)[C@@H](C)C1)NC(=O)[C@H]1Cc2ccc(O)cc2CN1 [JDTic]
- agonistic activity at KOR [8]: no agonistic activity

SMILES: COC(=O)[C@@H]1C[C@H](OC(C)=O)C(=O)[C@H]2[C@@]1(C)CC[C@H]1C(=O)O[C@H](c3ccoc3)C[C@]21C [salvinorin A]
- agonist character, G protein activation pathway [2]: full agonist
- concentration giving full activation of the receptor [2]: above 1 μM
